Measurements reported in US10696689B2, “Somatostatin modulators and uses thereof” (CRINETICS PHARMACEUTICALS, INC., priority 2018, dated 2020).

Biological target: human SST2 receptor (SSTR2) (Homo sapiens (Human), UniProt P30874)
Assay: cAMP assay: inhibition of cAMP via human SST2 receptor in CHO-K1 cells
Assay type: cell-based
Settings: CHO-K1 cells stably expressing human SSTR2, NKH477 stimulated
Description: General overview: All five SSTR subtypes are Gi coupled G-protein coupled receptors (GPCRs) that lead to decreases in intracellular cyclic AMP (cAMP) when activated by an agonist. Therefore, measurement of intracellular cAMP levels can be used to assess whether compounds of the invention are agonists of SSTR subtypes (John Kelly, Troy Stevens, W. Joseph Thompson, and Roland Seifert, Current Protocols in Pharmacology, 2005, 2.2.1-2.2). One example of an intracellular cAMP assay is described below.
Four days prior to the assay, 5,000 Chinese hamster ovary cells (CHO-K1, ATCC # CCL-61) stably expressing the human somatostatin receptor subtype 2 are plated in each well of a 96-well tissue culture-treated plate in Ham's F12 growth media (ThermoFisher #10-080-CM) supplemented with 10% donor bovine serum (Gemini Bio-Products #100-506), 100 U/mL penicillin; 100 ug/mL streptomycin; 2 mM L-glutamine (Gemini Bio-Products #400-110) and 0.2 mg/mL hygromycin B (GoldBio #31282-04-9). The cells are cultured at 37° C., 5% CO2 and 95% humidity. On the day of the assay, the media is aspirated and the cells are treated with 50 μL of 1.6 μM NKH477 (Sigma # N3290) plus various dilutions of compounds of the invention in assay buffer [1× Hank's Balanced Salt Solution (ThermoFisher # SH3058802), 0.5 mM HEPES pH 7.4, 0.1% bovine serum albumin, 0.2 mM 3-Isobutyl-1-methylxanthine (IBMX, VWR #200002-790)]. The cells are incubated for 20 minutes at 37° C. (the final concentration of the compounds of the invention are typically 0-10,000 nM). The cells are treated with 50 μL of lysis buffer (HRTF cAMP kit, Cisbio). The lysate is transferred to 384-well plates and cAMP detection and visualization antibodies are added and incubated for 1-24 hours at room temperature. The time-resolved fluorescent signal is read with a Tecan M1000Pro multiplate reader. The intracellular cAMP concentrations are calculated by regression to a standard curve and are plotted vs. the concentration of the compounds of the invention and the EC50 of the compounds are calculated using standard methods. All data manipulations are in GraphPad Prism v6.

human SST2 receptor (SSTR2), sequence (P30874 whole entry): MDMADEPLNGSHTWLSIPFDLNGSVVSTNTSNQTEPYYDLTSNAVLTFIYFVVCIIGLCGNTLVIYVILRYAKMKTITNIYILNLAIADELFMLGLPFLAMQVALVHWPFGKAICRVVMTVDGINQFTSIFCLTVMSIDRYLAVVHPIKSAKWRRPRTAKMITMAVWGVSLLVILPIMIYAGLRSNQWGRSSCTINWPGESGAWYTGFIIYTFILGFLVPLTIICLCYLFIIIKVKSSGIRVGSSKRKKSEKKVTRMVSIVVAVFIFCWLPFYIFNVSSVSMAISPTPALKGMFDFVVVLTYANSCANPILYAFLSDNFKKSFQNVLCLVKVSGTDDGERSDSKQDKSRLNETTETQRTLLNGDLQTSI

Structure (SMILES) | EC50 [nM]
COc1cc(C#N)cc2[nH]c(-c3c(N)ncc(-c4cc(C)cc(F)c4)c3N3CC[C@@H]4NCCO[C@H]4C3)nc12 [Compound 3-16, 2-{4-[(4αS,8αS)-octahydro-1H-pyrido[3,4-b][1,4]oxazin-6-yl]-2-amino-5-(3-fluoro-5-methylphenyl)pyridin-3-yl}-4-methoxy-1H-1,3-benzodiazole-6-carbonitrile] | < 0.1
COc1cc(F)cc2nc(-c3c(C#N)ncc(-c4cc(C)cc(F)c4)c3N3CCC(N)CC3)[nH]c12 [Compound 2-2, 4-(4-aminopiperidin-1-yl)-3-(6-fluoro-4-methoxy-1H-1,3-benzodiazol-2-yl)-5-(3-fluoro-5-methylphenyl)pyridine-2-carbonitrile] | 0.1 to 1
COc1cc(F)cc2nc(-c3c(C(N)=O)ncc(-c4cc(C)cc(F)c4)c3N3CCC(N)CC3)[nH]c12 [Compound 2-3, 4-(4-aminopiperidin-1-yl)-3-(6-fluoro-4-methoxy-1H-1,3-benzodiazol-2-yl)-5-(3-fluoro-5-methylphenyl)pyridine-2-carboxamide] | 0.1 to 1
CNc1ncc(-c2cc(C)cc(F)c2)c(N2CCC3OCCNC3C2)c1-c1nc2c(OC)cc(F)cc2[nH]1 (centres unmarked) [Compound 3-15, 4-[(4αS,8αS)-octahydro-1H-pyrido[3,4-b][1,4]oxazin-6-yl]-3-(6-fluoro-4-methoxy-1H-1,3-benzodiazol-2-yl)-5-(3-fluoro-5-methylphenyl)-N-methylpyridin-2-amine] | < 0.1
COc1cc(C#N)cc2nc(-c3c(N(C)C)ncc(-c4cc(C)cc(F)c4)c3N3CCC(N)CC3)[nH]c12 [Compound 1-3, 2-[4-(4-aminopiperidin-1-yl)-2-(dimethylamino)-5-(3-fluoro-5-methylphenyl)pyridin-3-yl]-4-methoxy-1H-1,3-benzodiazole-6-carbonitrile] | ≥ 1

Other lines, results leading:

EC50 [nM] | Structure (SMILES)
< 0.1 | COc1cc(F)cc2[nH]c(-c3c(N)ncc(-c4cc(C)cc(F)c4)c3N3CC[C@@H]4NCCO[C@H]4C3)nc12 [Compound 3-14, 4-[(4αS, 8αS)-octahydro-1H-pyrido[3,4-b][1,4]oxazin-6-yl]-3-(6-fluoro-4-methoxy-1H-1,3-benzodiazol-2-yl)-5-(3-fluoro-5-methylphenyl)pyridin-2-amine]
< 0.1 | Nc1ncc(-c2cc(F)cc(Cl)c2)c(N2CC[C@@H]3NCCO[C@H]3C2)c1-c1nc2c(F)cc(F)cc2[nH]1 [Compound 3-7, 4-[(4αS,8αS)-octahydro-1H-pyrido[3,4-b][1,4]oxazin-6-yl]-5-(3-chloro-5-fluorophenyl)-3-(4,6-difluoro-1H-1,3-benzodiazol-2-yl)pyridin-2-amine]
0.1 to 1 | CNc1ncc(-c2cc(F)cc(F)c2)c(N2CC[C@@H]3NCCO[C@H]3C2)c1-c1nc2c(F)cc(F)cc2[nH]1 [Compound 3-6, 4-[(4αS,8αS)-octahydro-1H-pyrido[3,4-b][1,4]oxazin-6-yl]-3-(4,6-difluoro-1H-1,3-benzodiazol-2-yl)-5-(3,5-difluorophenyl)-N-methylpyridin-2-amine]
< 0.1 | COc1cc(F)cc(-c2cnc(N)c(-c3nc4c(F)cc(F)cc4[nH]3)c2N2CCC3OCCNC3C2)c1 (centres unmarked) [Compound 3-8, 4-[(4αS,8αS)-octahydro-1H-pyrido[3,4-b][1,4]oxazin-6-yl]-3-(4,6-difluoro-1H-1,3-benzodiazol-2-yl)-5-(3-fluoro-5-methoxyphenyl)pyridin-2-amine]
0.1 to 1 | Nc1ncc(-c2cc(F)cc(F)c2)c(N2CCC3OCCNC3C2)c1-c1nc2c(F)cc(F)cc2[nH]1 (centres unmarked) [Compound 3-2, 4-[(4αS,8αS)-octahydro-1H-pyrido[3,4-b][1,4]oxazin-6-yl]-3-(4,6-difluoro-1H-1,3-benzodiazol-2-yl)-5-(3,5-difluorophenyl)pyridin-2-amine]
< 0.1 | Cc1cc(F)cc(-c2cnc(N)c(-c3nc4c(F)cc(F)cc4[nH]3)c2N2CC[C@@H]3NCCO[C@H]3C2)c1 [Compound 3-1, 4-[(4αS,8αS)-octahydro-1H-pyrido[3,4-b][1,4]oxazin-6-yl]-3-(4,6-difluoro-1H-1,3-benzodiazol-2-yl)-5-(3-fluoro-5-methylphenyl)pyridin-2-amine]
